Where two headings read alike, the source gives them in different places.
Key:
S29A PncC = target: T1, S29A PncC (Escherichia coli, UniProt P0A6G3, S29A); assay type: binding, E. coli
T1 construct: made in house; host or cells: E. coli BL21(DE3)
From the text: (§1) Experimental data were processed using the OriginPro 8.0 (OriginLab Corporation, Northampton, MA, USA). A non-linear curve analysis (Hill1 plot) was used for plotting the F0/F values in function of the metabolite concentration, to obtain the Kd value.

K61Q PncC = target: T2, K61Q PncC (Escherichia coli, UniProt P0A6G3, K61Q); assay type: binding, E. coli
T2 construct: made in house; host or cells: E. coli BL21(DE3)
Description: as §1
Percentage of the K61Q protein that would exist in complex with NMN in a cellular setting was calculated based on the Kd value, by using the equation: %=100/1+Kd/[NMN]

[1] = system: glutamine binding protein (GlnBP); details: GlnBP, high concentration of nucleotide
Description: Steady-state measurements were performed using an ISS_K2 fluorometer (ISS, Urbana-Champaign, IL, USA), equipped with a one-cell temperature-controlled sample holder. […] Excitation and emission slit widths were fixed at 0.5 and 1.0 nm, respectively. […] The nucleotides were added to reach the indicated final concentration (from 0.18 to 96 µM) with an incubation interval of 10 min. Triplicate readings were done for each experimental point. Experiments were repeated three times (for NMN and NaMN) or twice (for all the other metabolites). Controls experiments were performed using the E. coli Glutamine Binding Protein (GlnBP, 3µM), with increasing concentration of NMN or NaMN, at the same conditions.
Percentages of reduction of fluorescence intensities compared to buffer, were calculated as follow: (normalized fluorescence in presence of analyte at a given [µM]/normalized fluorescence in presence of corresponding volume of buffer) × 100.

[2] = nucleotide 96 µM (maximum quenching)

T2 sequence (P0A6G3 whole entry K61Q): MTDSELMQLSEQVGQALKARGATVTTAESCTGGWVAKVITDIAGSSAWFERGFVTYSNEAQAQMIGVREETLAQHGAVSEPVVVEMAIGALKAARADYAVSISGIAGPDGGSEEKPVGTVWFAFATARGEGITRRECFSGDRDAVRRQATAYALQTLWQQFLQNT
T1 sequence (P0A6G3 whole entry S29A): as the sequence (P0A6G3 whole entry K61Q) above, with S29A, Q61K counted along it

Row | Compound | S29A PncC fluorescence quenching (%) vs buffer (S29A PncC; nucleotide 0.185 µM) | S29A PncC fluorescence quenching (%) vs buffer (S29A PncC; nucleotide 0.375 µM) | S29A PncC fluorescence quenching (%) vs buffer (S29A PncC; nucleotide 0.75 µM) | S29A PncC fluorescence quenching (%) vs buffer (S29A PncC; nucleotide 1.5 µM) | S29A PncC fluorescence quenching (%) vs buffer (S29A PncC; nucleotide 3 µM) | S29A PncC fluorescence quenching (%) vs buffer (S29A PncC; nucleotide 6 µM) | S29A PncC fluorescence quenching (%) vs buffer (S29A PncC; nucleotide 12 µM) | S29A PncC fluorescence quenching (%) vs buffer (S29A PncC; nucleotide 24 µM) | S29A PncC fluorescence quenching (%) vs buffer (S29A PncC; nucleotide 48 µM) | K61Q PncC fluorescence quenching (%) vs buffer (K61Q PncC; nucleotide 0.185 µM) | K61Q PncC fluorescence quenching (%) vs buffer (K61Q PncC; nucleotide 0.375 µM) | K61Q PncC fluorescence quenching (%) vs buffer (K61Q PncC; nucleotide 0.75 µM) | K61Q PncC fluorescence quenching (%) vs buffer (K61Q PncC; nucleotide 1.5 µM) | K61Q PncC fluorescence quenching (%) vs buffer (K61Q PncC; nucleotide 3 µM) | K61Q PncC fluorescence quenching (%) vs buffer (K61Q PncC; nucleotide 6 µM) | K61Q PncC fluorescence quenching (%) vs buffer (K61Q PncC; nucleotide 12 µM) | K61Q PncC fluorescence quenching (%) vs buffer (K61Q PncC; nucleotide 24 µM) | K61Q PncC fluorescence quenching (%) vs buffer (K61Q PncC; nucleotide 48 µM) | reduction of fluorescence of GlnBP [1] | S29A PncC fluorescence quenching (%) vs buffer (S29A PncC; [2]) | other results
1 | NC(=O)c1ccc[n+]([C@@H]2O[C@H](COP(=O)([O-])OP(=O)(O)OC[C@H]3O[C@@H](n4cnc5c(N)ncnc54)[C@H](O)[C@@H]3O)[C@@H](O)[C@H]2O)c1 [NAD, nicotinamide adenine dinucleotide] | 0.52% | 0.32% | 0.80% | 0% | 0.19% | 0.32% | 1.35% | 2.54% | 4.58% | 0.63% | 1.39% | 1.57% | 0.80% | 0.85% | 0% | 0.65% | 0.36% | 0.72% | 6.6% |  | 
2 | NC(=O)c1ccc[n+]([C@@H]2O[C@H](COP(=O)(O)OP(=O)([O-])OC[C@H]3O[C@@H](n4cnc5c(N)ncnc54)[C@H](OP(=O)(O)O)[C@@H]3O)[C@@H](O)[C@H]2O)c1 [NADP] | 0% | 0% | 0.67% | 1.60% | 2.74% | 2.87% | 3.89% | 4.31% | 6.36% | 0% | 0.06% | 0.29% | 0.55% | 0.42% | 0% | 1.20% | 1.59% | 2.90% | 4.8% |  | K61Q PncC fluorescence quenching (%) vs buffer (K61Q PncC; nucleotide 96 µM): 5.1%
3 | NC(=O)c1ccc[n+]([C@@H]2O[C@H](CO)[C@@H](O)[C@H]2O)c1 [NR, nicotinamide riboside] | 0% | 0.12% | 0.80% | 0.96% | 1.84% | 1.98% | 2.29% | 3.13% | 3.51% | 2.13% | 2.97% | 3.37% | 3.71% | 3.13% | 2.36% | 2.7% | 2.1% | 1.79% | do not affect | 4.48% | 
4 | O=C(O)c1cccnc1 [Na, nicotinic acid] | 0% | 0% | 0% | 0% | 0% | 0% | 0% | 0.16% | 0.62% | 0.49% | 1.2% | 2.11% | 2.66% | 2.89% | 2.81% | 3.26% | 2.74% | 3.69% | do not affect |  | 
5 | Nc1ncnc2c1ncn2[C@@H]1O[C@H](COP(=O)(O)OP(=O)([O-])OC[C@H]2O[C@@H]([n+]3cccc(C(=O)O)c3)[C@H](O)[C@@H]2O)[C@@H](O)[C@H]1O [NaAD, nicotinic acid adenine dinucleotide] | 0% | 0% | 0% | 0% | 0% | 0% | 0% | 0% | 1.97% | 0.65% | 1.02% | 1.68% | 2.19% | 2.25% | 2.39% | 3.72% | 4.13% | 5.77% | 6.3% |  | 
6 | NC(=O)c1cccnc1 [Nam, nicotinamide] | 0.08% | 0.18% | 0.48% | 1.49% | 2.51% | 2.65% | 3.29% | 3.29% | 3.71% | 0% | 0.34% | 0.87% | 0.68% | 0.91% | 0.26% | 1.15% | 1.04% | 1.14% | do not affect | 5.01% | 
